Paper PMC10692362 (Acta Pharmaceutica Sinica. B, 2023)
Peptide text beside a SMILES is read from it. * marks the point of attachment. Cbz = O=C(OCc1ccccc1)*

System: ERα
Experiment: Immunoblot analysis of ERα degradation across ERα^WT and ERα^MUT BC cell lines
Assay type: cell-based, human
Details: 10 μmol/L MG-132 alone

With `CC(C)C[C@@H](C=O)NC(=O)[C@H](CC(C)C)NC(=O)[C@H](CC(C)C)NC(=O)OCc1ccccc1` [MG-132, reference compound] (Cbz-Leu-Leu-Leu-aldehyde) the “Effect on ERα degradation, alone” value was “no effect on ERα degradation”.
